Measurements published in patent US20050090471A1, “Inhibitors of cyclin-dependent kinases, compositions and uses related thereto” (GPC Biotech, Inc, priority 2001, published 2005).

Columns and labels:
HCT-116 cells = test: BrdU incorporation into DNA (flow cytometry); assay type: cell-based, human; set-up: unit not given here; details: inhibition of BrdU incorporation, unit not given; for BrdU 24: analysis at 24 hours; for BrdU 48: analysis at 48 hours; for BrdU 72: analysis at 72 hours
Protocol: This method measured the percentage of cells that incorporated the nucleotide analog, BrdU, into newly synthesized DNA as cells progressed through the S phase of the cell cycle. The inhibition of BrdU incorporation was used as a measure of a Cdlc inhibitor's effect on S phase progression and DNA replication.
3 sets of HCT-116 cells (100,000 cells/set) were plated in T25 flasks and incubated with a test compound as above. Analysis was done at 24, 48, and 72 hours. BrdU was added to each T-25 flask from a stock of 10 mg/ml to a final concentration of 10 μM and the cells were incubated for an additional 16-18 hours at 37° C. The cells were then prepared for flow cytometric analysis according to manufacturer's protocol (BrdU Flow kit, BD-Pharmingen catalogue # 2354KK) as follows:
Cells were harvested (adherent and floating) from the T25 flasks directly into Falcon 12×75 flow cytometric tubes as above followed by fixation and permeabilization with the addition of 100 μl Cytofix/Cytoperm buffer (30 minutes, room temperature). The cells were then washed with 1 ml of Perm Wash buffer and the cell pellets were resuspended in 100 μl Cytoperm Plus buffer and incubated on ice for 10 minutes. The cells were then washed again with 1 ml of Perm Wash buffer and the fixation was repeated in 100 μl of Cytofix/Cyto Perm buffer for 10 minutes at room temperature. The cells were then washed with 1 ml of Perm Wash buffer. The cells were next treated for one hour at 37° C. with 100 μl DNase to expose incorporated BrdU followed by another wash step with 1 ml of Perm Wash buffer. […] Cells were protected from light and incubated at room temperature for 20-30 minutes. Following the incubation, the cells were washed with 1 ml of Perrn Wash buffer, resuspended in 300 μl of 2% FBS in PBS, and analyzed on the flow cytometer.

IMR90 = test: Calcein AM viability assay, IMR90; assay type: cell-based; details: IMR-90, normal human fibroblast, 72-hours incubation
Protocol: The potency of Cdk inhibitors, as measured by loss of cellular viability, was determined with the Calcein AM assay (Molecular Probes). Calcein AM is a substrate of intracellular esterases, which is cleaved only in viable cells to generate a fluorescent product that can be quantified with a fluorescent plate reader. The fluorescent signal is proportional to the number of viable cells, and thus loss of signal in response to the exposure of cells to Cdk inhibitors correlates with a loss of viability. This assay distinguishes cell cycle arrest from loss of viability and is thus well suited for the evaluation of Cdk inhibitors.
Cellular IC50's were determined in the human colorectal carcinoma cell line, HCT-116, and the normal human fibroblast, IMR90. Protein adjusted IC50's were also determined in HCT-116. Results are presented in Table 3 below (HCT-116 (viability/protein adjusted) and IMR-90).
HCT-116 or IMR90 cells were recovered from sub-confluent plates by trypsinization and 1,000 or 4,000 cells, respectively, were plated in 24-well dishes and incubated overnight at 37° C., 5% CO2. HCT-116 cells were cultured in RPMI-1640, 10% FCS, and IMR90 cells were cultured in Minimum Essential Medium-alpha, 10% FCS. After overnight incubation to allow.adlierence, the media was aspirated from each well and replaced with media containing a test compound at a concentration from 0 to 250 nM, spanning a total of 7 doses. The plates were returned to the incubator and cultured for an additional 3 days. […] After 72-hours incubation with the test compound, the cells were washed twice with 1×PBS, talking special care to remove all residual buffer.
A 5 μM Calcein AM. solution was prepared by dissolving a 50 μg aliquot of Calcein (Molecular Probes catalog # C3100) in 50 μl DMSO. After the Calcein had completely dissolved (10 minutes at room temperature), it was diluted into 10 ml PBS. Calcein/PBS (0.5 ml) was added to each well. The plates were incubated for 75 minutes at 37° C. (protected from light) and the fluorescent signal was read on a fluorescent plate reader (excitation 485/20 and emission 530/25).

arrested HCT-116 cells = test: Arrested cell assay (serum starvation), HCT-116; assay type: cell-based, human; set-up: unit not given here; details: serum-starved arrested cells; unit not given
Protocol: Cyclin-dependent kinase (Cdk) activity is required to promote the progression of cells through distinct phases of the cell division cycle. The proliferation of normal, non-transformed, cells in culture requires the presence of growth factors, the removal of which, through serum deprivation, leads to a loss of Cdlc activity and consequent exit from the cell cycle as cells enter the quiescent phase, Go.
HCT-116 cells were plated in triplicate for each compound concentration to be tested in RPMI 1640 media containing 10% fetal calf serum at a density of either 200 or 2,000 cells per well in 24 well dishes, and incubated overnight at 37° C., 5% CO2. The media from the plate containing 2,000 cells per well was removed, cells were washed once with serum free media and 1 ml of serum free media was placed on cells. Tle plates containing cells both in the presence and absence of serum were incubated for 6 additional days.
To ensure that the cells had indeed exited the cell cyde upon serum withdrawal, the percentage of BrdU positive cells, indicative of those progressing through S phase, was determined in each experiment. For the purpose of this experiment, cellular viability was evaluated simultaneously with the use of SNARF-1, a fluorescent substrate of intracellular esterases which are only active in viable cells. Together, the evaluation of BrdU incorporation and SNARF-1 cleavage by flow cytometry provided an assessment of the viability of arrested cells on a single cell basis. For this analysis, the cells were stained with SNARF-1 as follows and then prepared for determination of BrdU incorporation as described above.
HCT-116 and IMR90 cells were plated at the density described below in T25 flasks in serum-containing media (RPMI-1640 or MEM-a with 10% FCS, respectively). After 24 hours of growth, the media was removed and, after washing the cells, replaced with serum-free media. • HCT-116+FCS 5,000 cells • HCT-116−FCS 100,000 cells • IMR90+FCS 100,000 cells • IMR90−FCS 200,000 cells
The IMR90 cells were grown for an additional 3 days and the HCT-116 cells were grown for an additional 6 days before pulsing with BrdU. A 50 μg aliquot of SNARF-1 (Molecular Probes catalog #C1272) was dissolved in 50 μl DMSO at room temperature for 10 minutes and then diluted into 10 ml PBS. The SNARF-1 was further diluted 1:64,000 before 200 μl was added to each tube of cells which had been cultured in the presence or absence of serum and pulsed with BrdU for 20 hours. The cells were incubated at 37° C. for 30 minutes and then washed with 3 ml of PBS.
These cells were then fixed and prepared for the measurement of BrdU incorporation as described above. The percentage of viable (FL-2) and BrdU positive (FL-1) cells was determined on a FACScan flow cytometer.

| Structure (SMILES) | BrdU 24 (HCT-116 cells) | BrdU 48 (HCT-116 cells) | BrdU 72 (HCT-116 cells) | IC50 (IMR90) [nM] | Arrested cell HCT (arrested HCT-116 cells) |
| --- | --- | --- | --- | --- | --- |
| CC(C)c1nn(-c2c(Cl)cccc2Cl)c2nc(Cc3ccc(O)c(CN4CCN(C(C)C)CC4)c3)[nH]c(=O)c12.Cl.Cl [Compound C] | <0.1 | <0.1 | <1 | < 100 | <0.01 |
| Cl.Cl.Cl.O=C(Nc1cccc2c1C(=O)c1c-2n[nH]c1-c1ccc(OCCN2CCCC2)cc1)NN1CCOCC1 [Compound I] | <0.01 | <0.1 | <0.1 | < 100 | <0.1 |
| CC(C)N1CCN(CCOc2ccc(-c3[nH]nc4c3C(=O)c3c(NC(=O)NN5CCOCC5)cccc3-4)cc2)CC1.Cl.Cl.Cl [E] | <0.01 | <0.1 | <0.1 | < 100 | <0.1 |
| CN1CCN(NC(=O)Nc2cccc3c2C(=O)c2c-3n[nH]c2-c2ccc(OCCN3CCCC3)cc2)CC1.Cl.Cl.Cl [F] | – | <0.1 | <1 | < 100 | <0.1 |
| CCCN(CCOc1ccc(-c2[nH]nc3c2C(=O)c2c(NC(=O)NN4CCOCC4)cccc2-3)cc1)CC1CC1.Cl.Cl.Cl [G] | <0.01 | <0.1 | <0.1 | < 100 | <0.1 |
| Cl.Cl.Cl.O=C(Nc1cccc2c1C(=O)c1c-2n[nH]c1-c1ccc(OCCN(CCO)CCO)cc1)NN1CCOCC1 [H] | <1 | <1 | <1 | < 100 | <0.1 |
| CC(C)N1CCN(Cc2cc(-c3[nH]nc4c3C(=O)c3c(NC(=O)NN5CCOCC5)cccc3-4)ccc2O)CC1.Cl.Cl.Cl.Cl [K] | <0.1 | <0.1 | <0.1 | > 100 | <0.01 |
| CN1CCN(NC(=O)Nc2cccc3c2C(=O)c2c-3n[nH]c2-c2ccc(OCCN3CCOCC3)cc2)CC1.Cl.Cl [Q] | <0.1 | <0.1 | <0.1 | < 100 | <0.1 |
